# Measured values from patent US20160331662A1, “Compositions that Inhibit and Prevent the Formation of Dental Caries and Methods of Using the Same” (priority 2014, published 2016).
# Legend:
# [1] = test system: AgI/II VheI (S. mutans); assay: SPR binding of SRCR peptide to immobilized surface protein (Example 3)
# Method: (§1) Binding of the SRCR peptide […] (SEQ ID NO: 10) to immobilized bacterial surface proteins was determined using procedures as described in Example 1.
# (§2) The interaction of the SRCR peptide […] (SEQ ID NO:10) with immobilized bacterial surface proteins AgI/II, SspB and GbpC as examined by surface plasmon resonance studies are shown in FIGS. 27A, 27B and 27C respectively, and binding affinities determined from these studies are listed in Table 8.
# [2] = test system: GbpC (S. mutans); assay: as above
# Method: as §1, §2
# [3] = test system: SspB VheI (S. gordonii); assay: as above
# Method: as §1, §2
# [4] = molecular target: T1, iSRCR1 (Homo sapiens, UniProt Q9UGM3); assay: SPR binding of analytes to immobilized iSRCR1 (CM5 chip, 1:1 Langmuir); details: for direct binding to immobilized iSRCR1 (in words): substance alone over CM5 chip
# T1 construct: strongly proves that a single SRCR domain contains the adherence sites for AgI/II and SspB; made in house; host or cells: Drosophila expression system
# T1 sequence (Q9UGM3 102-202 limits assumed): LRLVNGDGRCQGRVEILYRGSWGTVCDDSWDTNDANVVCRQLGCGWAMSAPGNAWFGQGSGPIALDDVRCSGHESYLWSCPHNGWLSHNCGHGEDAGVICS
# Method: (§3) Real time binding analyses of the SRCR domains with AgI/II fragments were carried out using the BIAcore 2000 system. […] Self association of iSRCR1 or iSRCR123 (at 2 μM) were also determined in a similar manner as described above. Finally to determine the effect of calcium SPR analysis was carried out by dialyzing the analytes and ligands in binding buffer devoid of CaCl2.
# (§4) In addition, the SRCR holding two distinct surfaces compounded the elucidation of individual kinetics, and presently there are no modeling protocols available to determine the individual affinities for such a system, therefore for simplicity we have utilized a single site 1:1 Langmuir model. All experiments were carried out in triplicates and the kinetics of the association (KA) and dissociation (KD) rate constants were deduced using the 1:1 Langmuir Kinetic model on the BIA-Evaluation software. The concentration (C in μM) of analyte (FL^AgI/II or FL^SspB at 2 μM) that adhered to the immobilized ligand (iSRCR1, iSRCR123) within the flow cell was calculated using the formula C=(RU/MW)×(1/V), where RU is resonance unit (1 RU=1 pg of bound protein), MW is molecular weight of analyte and V is volume of flow cell (1.2×10^−10 L).
# [5] = molecular target: T2, iSRCR1 (Deglycosylated) (Homo sapiens, UniProt Q9UGM3); assay: SPR binding of analytes to on-chip deglycosylated iSRCR1; details: ligand iSRCR1 (Deglycosylated)
# T2 construct: strongly proves that a single SRCR domain contains the adherence sites for AgI/II and SspB; made in house; host or cells: Drosophila expression system
# T2 sequence (Q9UGM3 102-202): as the sequence (Q9UGM3 102-202 limits assumed) above
# Method: as §3
# (§5) On-chip Deglycosylation of the iSRCR1 and iSRCR123 was carried out after immobilizing them on CM5 sensor chip. Enzymatic deglycosylation was done to remove N- and O-linked carbohydrates from iSRCR1 and iSRCR123. Briefly, after immobilization of iSRCR1 and iSRCR123, deglycosylation was carried out at native conditions by incubating the entire chip surface externally with a cocktail containing a total reaction volume of 40 μl made up of 4 μl of 10×G7reaction buffer, 4 μl of 10% NP40, 4 μl of Neuraminidase (Sigma), 18 μl water and 10 μl of O-glycosidase (New England Biolabs, Inc.,) and similarly following manufacturers protocols for EndoH (New England Biolabs, Inc). Later, the chip was sealed and incubated overnight at 37° C. Subsequently the chip was thoroughly washed with binding buffer (20 mM HEPES, 150 mM NaCl, 2.5 mM CaCl2) to remove the deglycosylating enzymes and other remnants. Binding studies with FL^AgI/II and FL^SspB and subfragments were then carried out as described above and regenerated as described in Table 2.
# as §4
# [6] = molecular target: T3, iSRCR123 (Homo sapiens, UniProt Q9UGM3); assay: SPR binding of analytes to immobilized iSRCR123 (CM5 chip, 1:1 Langmuir); details: for direct binding to immobilized iSRCR123 (in words): substance alone over CM5 chip
# T3 construct: multiple SRCR domains have better adherence capability compared to that of a single SRCR domain; made in house; host or cells: Drosophila expression system
# T3 sequence (Q9UGM3 102-463 limits assumed): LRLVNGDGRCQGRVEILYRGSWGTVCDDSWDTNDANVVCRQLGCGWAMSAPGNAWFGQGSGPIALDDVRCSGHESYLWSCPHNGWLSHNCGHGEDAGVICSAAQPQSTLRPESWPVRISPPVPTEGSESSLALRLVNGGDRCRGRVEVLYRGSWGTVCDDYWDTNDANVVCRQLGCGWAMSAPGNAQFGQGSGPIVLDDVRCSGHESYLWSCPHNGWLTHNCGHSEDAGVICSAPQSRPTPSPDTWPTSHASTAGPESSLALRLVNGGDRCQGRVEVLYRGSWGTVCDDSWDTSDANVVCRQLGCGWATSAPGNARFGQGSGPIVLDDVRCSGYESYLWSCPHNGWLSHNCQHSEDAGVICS
# Method: as §3, §4
# [7] = molecular target: T4, iSRCR123 (Deglycosylated) (Homo sapiens, UniProt Q9UGM3); assay: SPR binding of analytes to on-chip deglycosylated iSRCR123; details: ligand iSRCR123 (Deglycosylated)
# T4 construct: multiple SRCR domains have better adherence capability compared to that of a single SRCR domain; made in house; host or cells: Drosophila expression system
# T4 sequence (Q9UGM3 102-463 limits assumed): as above
# Method: as §3, §5, §4
# [8] = molecular target: T1, iSRCR1; assay: Competition adherence SPR on immobilized iSRCR1; type: binding; details: FL injected first
# Method: (§6) To determine whether AgI/II domains bound to the same site on SRCR domains, competitive binding SPR experiments were conducted in triplicates as previously described where each fragment of AgI/II (FL, A3VP1, or C123) or SspB (FL, A3VP1 or C123) was initially passed over the chip surface immobilized with either iSRCR1, iSRCR123 or SAG for 60 seconds to saturate available binding sites. The response curve of AgI/II or SspB first fragment was recorded, where the maximal RU (RU1) was considered as the base line for the second injection, and thereafter the competing fragment was injected and its response was recorded as RU2. The adherence of the second fragment was then calculated (RU2−RU1) for all SPR competing assay as reported earlier.
# [9] = molecular target: T3, iSRCR123; assay: Competition adherence SPR on immobilized iSRCR123; type: binding; details: FL injected first
# Method: as §6
# [10] = molecular target: T5, SAG (Homo sapiens, UniProt Q9UGM3); details: from reference [15]; read-out: affinity of interaction with SAG; cited from earlier work
# T5 construct: from tissue; host or cells: saliva (purified SAG, gift)
# T5 sequence (Q9UGM3 20-2413): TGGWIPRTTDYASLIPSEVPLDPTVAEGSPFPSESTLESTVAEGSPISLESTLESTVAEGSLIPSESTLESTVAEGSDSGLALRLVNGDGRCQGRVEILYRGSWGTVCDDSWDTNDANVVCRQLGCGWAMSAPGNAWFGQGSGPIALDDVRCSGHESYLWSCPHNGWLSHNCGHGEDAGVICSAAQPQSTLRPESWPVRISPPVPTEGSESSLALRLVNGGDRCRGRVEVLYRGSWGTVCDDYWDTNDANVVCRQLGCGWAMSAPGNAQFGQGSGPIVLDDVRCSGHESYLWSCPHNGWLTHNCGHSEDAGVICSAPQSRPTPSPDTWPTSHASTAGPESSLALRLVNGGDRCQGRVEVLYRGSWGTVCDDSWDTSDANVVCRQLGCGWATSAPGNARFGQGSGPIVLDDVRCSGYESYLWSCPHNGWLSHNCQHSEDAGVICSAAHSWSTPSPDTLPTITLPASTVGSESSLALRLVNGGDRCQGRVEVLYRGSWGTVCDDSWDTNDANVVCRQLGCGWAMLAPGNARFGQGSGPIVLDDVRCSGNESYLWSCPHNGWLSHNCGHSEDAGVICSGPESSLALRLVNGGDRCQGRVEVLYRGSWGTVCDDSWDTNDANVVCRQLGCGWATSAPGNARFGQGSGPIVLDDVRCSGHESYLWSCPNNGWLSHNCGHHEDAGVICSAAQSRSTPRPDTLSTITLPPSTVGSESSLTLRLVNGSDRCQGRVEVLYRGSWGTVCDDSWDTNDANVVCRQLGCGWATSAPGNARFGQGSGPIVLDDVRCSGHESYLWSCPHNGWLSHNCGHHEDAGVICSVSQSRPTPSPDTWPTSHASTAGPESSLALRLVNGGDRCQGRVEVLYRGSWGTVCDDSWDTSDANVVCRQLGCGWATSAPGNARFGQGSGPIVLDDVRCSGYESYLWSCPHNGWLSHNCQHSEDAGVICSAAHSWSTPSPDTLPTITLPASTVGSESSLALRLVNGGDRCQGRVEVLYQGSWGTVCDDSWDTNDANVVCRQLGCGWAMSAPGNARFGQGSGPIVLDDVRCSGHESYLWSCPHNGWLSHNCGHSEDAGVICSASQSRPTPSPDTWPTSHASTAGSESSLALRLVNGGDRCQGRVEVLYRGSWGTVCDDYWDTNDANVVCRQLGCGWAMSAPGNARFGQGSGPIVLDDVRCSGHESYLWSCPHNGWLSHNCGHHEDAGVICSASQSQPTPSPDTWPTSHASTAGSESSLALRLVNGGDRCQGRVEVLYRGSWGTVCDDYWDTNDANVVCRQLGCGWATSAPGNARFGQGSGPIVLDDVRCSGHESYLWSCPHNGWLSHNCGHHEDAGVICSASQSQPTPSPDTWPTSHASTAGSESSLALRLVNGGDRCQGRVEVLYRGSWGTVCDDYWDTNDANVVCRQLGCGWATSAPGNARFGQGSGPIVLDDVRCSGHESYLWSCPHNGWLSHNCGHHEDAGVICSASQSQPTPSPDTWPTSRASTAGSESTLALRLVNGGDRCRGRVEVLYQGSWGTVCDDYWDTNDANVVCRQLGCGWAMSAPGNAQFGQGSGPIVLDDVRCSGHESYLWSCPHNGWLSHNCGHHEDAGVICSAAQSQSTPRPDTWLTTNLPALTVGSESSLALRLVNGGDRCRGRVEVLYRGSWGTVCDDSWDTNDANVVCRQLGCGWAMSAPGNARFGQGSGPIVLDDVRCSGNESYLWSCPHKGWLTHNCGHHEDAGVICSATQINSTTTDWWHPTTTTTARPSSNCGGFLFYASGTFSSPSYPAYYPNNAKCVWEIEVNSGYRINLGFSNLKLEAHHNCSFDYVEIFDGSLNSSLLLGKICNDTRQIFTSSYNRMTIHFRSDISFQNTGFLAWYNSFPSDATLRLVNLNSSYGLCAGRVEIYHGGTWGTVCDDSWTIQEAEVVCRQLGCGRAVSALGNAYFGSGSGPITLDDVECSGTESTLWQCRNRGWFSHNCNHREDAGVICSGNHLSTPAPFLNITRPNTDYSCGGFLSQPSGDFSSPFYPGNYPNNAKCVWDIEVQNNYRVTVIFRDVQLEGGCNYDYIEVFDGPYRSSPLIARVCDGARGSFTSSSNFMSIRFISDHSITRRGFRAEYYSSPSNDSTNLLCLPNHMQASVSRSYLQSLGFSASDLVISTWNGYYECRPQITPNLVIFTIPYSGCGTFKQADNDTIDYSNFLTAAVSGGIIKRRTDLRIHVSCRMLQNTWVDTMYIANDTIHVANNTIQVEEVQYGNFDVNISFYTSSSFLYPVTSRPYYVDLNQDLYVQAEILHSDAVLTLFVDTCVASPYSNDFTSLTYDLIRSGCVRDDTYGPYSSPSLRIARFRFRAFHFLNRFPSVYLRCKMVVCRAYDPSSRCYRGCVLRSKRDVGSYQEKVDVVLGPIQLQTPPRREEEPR
# [11] = test system: S. gordonii DL1; assay: Flow cytometric analysis of iSRCR adherence to bacteria; type: cell-based; details: 10 μM, compared with S. mutans
# Method: (§7) S. mutans UA159 and S. gordonii DL1 cells were grown overnight in TSY broth media at 37° C. and washed thoroughly with FACS buffer (20 mM HEPES pH 7.4, 150 mM NaCl and 5% non-fat dry milk) to reduce non-specific binding. Subsequently, 10 μM of iSRCR1 or iSRCR123 were added to 100 μl of cells (1×10^7 cells/ml) in binding buffer (FACS buffer+2.5 mM CaCl2) and incubated for 60 min at 37° C. The cells were later washed thoroughly with binding buffer to remove unbound iSRCRs. Subsequently, Anti-His tag Alexafluor 488 antibody (1:50 dilution) (EMD Millipore, Inc) that adheres to the His tag present on SRCRs was added to the cells and incubated for 30 min, washed three times and resuspended in 200 μl of binding buffer. Samples without iSRCRs served as control. Samples were then assayed using the FACScan machine (BD Biosciences) at the Analytical and Preparative Cytometry Facility (APCF) at UAB, and data obtained was analyzed using FlowJo 7.2.4 software.
# [12] = test system: S. mutans UA159; assay: as above; type: cell-based; details: 10 μM
# Method: as §7
# [13] = test system: S. mutans UA159; assay: Confocal microscopy of iSRCR adherence to bacteria; type: cell-based; details: 10 μM
# Method: S. mutans UA159 and S. gordonii DL1 were grown overnight in TSY (30 g/L of Trypticase soy broth and 0.5 g/L yeast extract, pH 7.2) media on an eight-well Lab Tek Chamber slide system (Sigma). The cells were fixed with 3% paraformaldehyde, washed with binding buffer (20 mM HEPES pH 7.4, 150 mM NaCl and 2.5 mM CaCl2), and thereafter iSRCR1 or iSRCR123 (10 μM) were added to the cells and incubated for 60 min. The unbound SRCRs were removed by repeated washing using the binding buffer. Subsequently, Alexa fluor 488 conjugated Anti-His-tag antibody (EMD Millipore, Inc) (1:50 dilution) that can bind to the His Tag on SRCRs was added. After 60 min incubation the unbound antibody was washed away thoroughly using binding buffer, and the chamber walls were gently removed. Cover slips were then mounted with 15 μl of fluoromount-G with DAPI (Southern Biotech Inc) to stain bacterial nuclei and were sealed until ready to be imaged. The experiment without SRCRs served as control. All slides were imaged using Leica SP1 UV Confocal Laser Scanning Microscope and Zeiss LSM 710 Confocal Laser Scanning Microscope at the UAB-High resolution imaging facility (UAB-HRIF).
# [14] = test system: S. gordonii DL1; assay: Aggregation assay (OD700 over 60 min); type: cell-based; details: iSRCR 10 μM or SAG, 6 mM CaCl2
# Method: (§8) Aggregation assays were performed as described earlier with slight modifications. Briefly, S. mutans UA159 and S. gordonii DL1 cells were grown in TSY broth media overnight at 37° C. in the presence of 5% CO2. The bacteria were centrifuged at 5000×g and washed with a buffer containing 20 mM HEPES pH 7.4, 150 mM NaCl and re-suspended to an approximate OD700 of 1. The bacterial suspension (900 μl) was mixed with 100 μl of SAG or iSRCR1 (10 μM) or iSRCR123 ([…]) or commercially synthesized (Think Peptides, Inc) SRCRP2 peptide with fluorescein amidite (FAM) at the carboxyl end ([…]-[FAM]) (SEQ ID NO:9, at both 400 μg/ml and 1 mg/ml) in the presence of 6 mM CaCl2 and aggregation was measured by recording OD700over 60 min at 5 min intervals, where the buffer alone was used as control. All experiments were carried out at least five times, and the results were analyzed with One-way ANOVA. Post-hoc testing where *, P<0.05 was considered statistically significant and results were presented as the percentage of cells aggregated.
# [15] = test system: S. mutans UA159; assay: Aggregation assay (OD700 over 60 min); type: cell-based; details: iSRCR 10 μM or SAG, 6 mM CaCl2
# Method: as §8
# AgI/II VheI (S. mutans), sequence (P23504 464-840 limits assumed): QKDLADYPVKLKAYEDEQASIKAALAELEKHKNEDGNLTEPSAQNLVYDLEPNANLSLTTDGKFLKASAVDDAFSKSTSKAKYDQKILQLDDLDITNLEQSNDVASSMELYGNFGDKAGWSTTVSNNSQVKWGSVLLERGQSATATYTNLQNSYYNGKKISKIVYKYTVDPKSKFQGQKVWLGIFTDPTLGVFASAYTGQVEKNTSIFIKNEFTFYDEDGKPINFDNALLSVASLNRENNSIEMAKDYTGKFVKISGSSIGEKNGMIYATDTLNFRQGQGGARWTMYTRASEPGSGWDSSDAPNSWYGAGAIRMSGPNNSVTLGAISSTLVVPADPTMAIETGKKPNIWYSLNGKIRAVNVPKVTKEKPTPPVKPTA
substance,measurement,setting,value
ETNDANVVARQL [SRCR peptide],KA,[1],1.56e+08 M⁻¹
same,Kd,[1],6.42 nM
same,Rmax,[1],43.3 Ru
same,ka,[1],1.08 × 10^7 1/ms
same,kd,[1],0.696 s⁻¹
same,KA,[2],2.57e+08 M⁻¹
same,Kd,[2],3.89 nM
same,Rmax,[2],232 Ru
same,ka,[2],1.47 × 10^7 1/ms
same,kd,[2],0.0573 s⁻¹
same,KA,[3],1.42e+08 M⁻¹
same,Kd,[3],7.02 nM
same,Rmax,[3],110 Ru
same,ka,[3],4.44 × 10^6 1/ms
same,kd,[3],0.0312 s⁻¹
FL^AgI/II: S. mutans AgI/II full length construct (167.5 kDa),KA,[4]; ligand iSRCR1,1.31e+08 M⁻¹
same,Kd,[4]; ligand iSRCR1,7.69 nM
same,ka,[4]; ligand iSRCR1,127000 M⁻¹ s⁻¹
same,kd,[4]; ligand iSRCR1,0.000976 s⁻¹
same,KA,[5],865000 M⁻¹
same,Kd,[5],1160 nM
same,ka,[5],49700 M⁻¹ s⁻¹
same,kd,[5],0.0575 s⁻¹
same,"quantity of protein that adhered to iSRCR123, higher than iSRCR1","[6]; analyte at 2 μM, iSRCR123 versus iSRCR1",16%
same,KA,[6]; ligand iSRCR123,1.34e+08 M⁻¹
same,Kd,[6]; ligand iSRCR123,7.46 nM
same,ka,[6]; ligand iSRCR123,99700 M⁻¹ s⁻¹
same,kd,[6]; ligand iSRCR123,0.000743 s⁻¹
same,KA,[7],6.82e+06 M⁻¹
same,Kd,[7],147 nM
same,ka,[7],3160 M⁻¹ s⁻¹
same,kd,[7],0.000464 s⁻¹
same,inhibition of binding of the A3VP1 fragment of the same protein,[8],46%
same,inhibition of binding of the C123 fragment of the same protein,[8],36%
same,inhibition of binding of the A3VP1 fragment of the same protein,[9],44%
same,inhibition of binding of the C123 fragment of the same protein,[9],25%
same,Kd,[10],33.3 nM
Lysozyme [reference compound],direct binding to immobilized iSRCR1 (in words),[4],binding
same,direct binding to immobilized iSRCR123 (in words),[6],binding
iSRCR123: recombinant construct of three tandem SRCR domains of Gp340 (43 kDa),adherence by FACS (in words),[11],lower adherence
same,increase in fluorescence intensity compared to the control,[12],~100 fold
same,binding to cells by confocal microscopy (in words),[13],binding
same,percentage of cells aggregated,[14],48%
same,percentage of cells aggregated,[15],69%
thaumatin [reference compound],direct binding to immobilized iSRCR1 (in words),[4],not
same,direct binding to immobilized iSRCR123 (in words),[6],not
